Experiments:
[1] = Inhibition of cell proliferation (MTT method), Vero cells; format: cell-based; details: African green monkey, Vero cells (African green monkey kidney), concentration which inhibited cell growth by 50% vs control cultures, mean of three assays
HEp-2 cells = assay: Inhibition of cell proliferation (MTT method), HEp-2 cells; format: cell-based, human; details: concentration which inhibited cell growth by 50% vs control cultures, mean of three assays, read-out: CC50 HEp2
[2] = Inhibition of cell proliferation (MTT method), MDCK cells; format: cell-based; details: dog, MDCK cells (Madin-Darby canine kidney), concentration which inhibited cell growth by 50% vs control cultures, mean of three assays
[3] = Inhibition of cell proliferation (MTT method), HFF cells; format: cell-based, human; details: human, HFF cells (human foreskin fibroblasts), concentration which inhibited cell growth by 50% vs control cultures, mean of three assays
[4] = Inhibition of cell proliferation (MTT method), BS-C-1 cells; format: cell-based; details: African green monkey, BS-C-1 cells (African green monkey kidney), concentration which inhibited cell growth by 50% vs control cultures, mean of three assays
HFF cells = assay: Inhibition of cell proliferation (MTT method), HFF cells; format: cell-based, human; details: concentration which inhibited cell growth by 50% vs control cultures, mean of three assays
[5] = Inhibition of cell proliferation (MTT method), HEp-2 cells; format: cell-based, human; details: human, HEp-2 cells (human epidermoid carcinoma larynx), concentration which inhibited cell growth by 50% vs control cultures, mean of three assays, read-out: CC50 HEp2
[6] = statement in words; reference not given; cited from earlier work
[7] = statement in words; reference not given; cited from earlier work; remark: listed apart in the source

Cc1cn([C@@H]2C[C@H](Cn3cc(CCO)nn3)N(C)O2)c(=O)[nH]c1=O [13a]
CC50 [1]: 10 µM
CC50 (HEp-2 cells): 40 µM
CC50 [2]: 10 µM
CC50 [3]: 10 µM
CC50 [4]: 10 µM
melting point: 215 to 218 °C

Cc1cn([C@@H]2C[C@H](Cn3cc(CO)nn3)N(C)O2)c(=O)[nH]c1=O [13b]
CC50 [1]: 40 µM
CC50 (HEp-2 cells): 40 µM
CC50 [2]: 30 µM
CC50 [3]: 30 µM
CC50 [4]: 30 µM
melting point: 205 to 210 °C

CCCc1cn(C[C@H]2C[C@@H](n3cc(C)c(=O)[nH]c3=O)ON2C)nn1 [13c]
CC50 [1]: 20 µM
CC50 (HEp-2 cells): 40 µM
CC50 [2]: 20 µM
CC50 (HFF cells): 5 µM
CC50 [4]: 20 µM
melting point: 132 to 137 °C

Cc1cn([C@@H]2C[C@H](Cn3cc(-c4ccccc4)nn3)N(C)O2)c(=O)[nH]c1=O [13d]
CC50 [1]: 20 µM
CC50 [5]: 20 µM
CC50 [2]: 20 µM
CC50 (HFF cells): 5 µM
CC50 [4]: 20 µM
melting point: 268 to 272 °C

COc1ccc(-c2cn(C[C@H]3C[C@@H](n4cc(C)c(=O)[nH]c4=O)ON3C)nn2)cc1 [13e]
CC50 [1]: 20 µM
CC50 (HEp-2 cells): 40 µM
CC50 [2]: 20 µM
CC50 (HFF cells): 5 µM
CC50 [4]: 20 µM
melting point: 215 to 218 °C

Cc1cn([C@@H]2C[C@H](Cn3cc(-c4ccc(F)cc4)nn3)N(C)O2)c(=O)[nH]c1=O [13f]
CC50 [1]: 10 µM
CC50 (HEp-2 cells): 40 µM
CC50 [2]: 10 µM
CC50 [3]: 40 µM
CC50 [4]: 10 µM
melting point: 269 to 271 °C

CCCCCc1ccc(-c2cn(C[C@H]3C[C@@H](n4cc(C)c(=O)[nH]c4=O)ON3C)nn2)cc1 [13g]
CC50 [1]: 10 µM
CC50 [5]: 20 µM
CC50 [2]: 10 µM
CC50 (HFF cells): 5 µM
CC50 [4]: 10 µM
melting point: 259 to 260 °C

Cc1cn([C@H]2C[C@H](Cn3cc(CCO)nn3)N(C)O2)c(=O)[nH]c1=O [14a]
CC50 [1]: 20 µM
CC50 (HEp-2 cells): 40 µM
CC50 [2]: 20 µM
CC50 [3]: 20 µM
CC50 [4]: 20 µM
melting point: 202 to 206 °C

Cc1cn([C@H]2C[C@H](Cn3cc(CO)nn3)N(C)O2)c(=O)[nH]c1=O [14b]
CC50 [1]: 20 µM
CC50 (HEp-2 cells): 40 µM
CC50 [2]: 20 µM
CC50 [3]: 20 µM
CC50 [4]: 10 µM
melting point: 198 to 201 °C

CCCc1cn(C[C@H]2C[C@H](n3cc(C)c(=O)[nH]c3=O)ON2C)nn1 [14c]
CC50 [1]: 20 µM
CC50 (HEp-2 cells): 40 µM
CC50 [2]: 20 µM
CC50 (HFF cells): 5 µM
CC50 [4]: 20 µM
melting point: 168 to 170 °C

Cc1cn([C@H]2C[C@H](Cn3cc(-c4ccccc4)nn3)N(C)O2)c(=O)[nH]c1=O [14d]
CC50 [1]: 5 µM
CC50 [5]: 5 µM
CC50 [2]: 5 µM
CC50 (HFF cells): 5 µM
CC50 [4]: 5 µM
melting point: 233 to 235 °C

COc1ccc(-c2cn(C[C@H]3C[C@H](n4cc(C)c(=O)[nH]c4=O)ON3C)nn2)cc1 [14e]
CC50 [1]: 20 µM
CC50 (HEp-2 cells): 40 µM
CC50 [2]: 20 µM
CC50 (HFF cells): 5 µM
CC50 [4]: 20 µM
melting point: 202 to 205 °C

Cc1cn([C@H]2C[C@H](Cn3cc(-c4ccc(F)cc4)nn3)N(C)O2)c(=O)[nH]c1=O [14f]
CC50 [1]: 20 µM
CC50 (HEp-2 cells): 40 µM
CC50 [2]: 20 µM
CC50 (HFF cells): 5 µM
CC50 [4]: 20 µM
melting point: 230 to 233 °C

CCCCCc1ccc(-c2cn(C[C@H]3C[C@H](n4cc(C)c(=O)[nH]c4=O)ON3C)nn2)cc1 [14g]
CC50 [1]: 10 µM
CC50 [5]: 20 µM
CC50 [2]: 10 µM
CC50 (HFF cells): 5 µM
CC50 [4]: 10 µM
melting point: 245 to 248 °C

Cc1cn([C@@H]2C[C@H](CO)N(C)O2)c(=O)[nH]c1=O [compound 8, (3′RS,5′SR)-2′-N-methyl-3′-hydroxymethyl-1′,2′-isoxazolidin-5′-ylthymine]
antiviral activity [6]: endowed with antiviral activity
cytotoxicity [7]: do not show any cytotoxicity
